Source: publication PMC8372404 (Frontiers in Neuroscience, 2021)
Where a SMILES comes first, the peptide text is derived from it.

Assays:
[1] = system: BALB/c mice; assay: Elevated plus maze (EPM); type: in vivo
Experimental: The open field test (OFT) was used to assess locomotion. The total distance traveled in a 5 min session was recorded using Ethovision XT14 ([Prut and Belzung, 2003]). The elevated plus maze (EPM) and the marble burying test (MBT) were used to assess anxiolytic-like drug activity. For the EPM ([Pellow et al., 1985]), the percentage of time spent in the open arms, the percentage of open arm entries, and the number of total arm entries during a 5-min session were recorded using Ethovision. “Anxiety Index” (AI), an integrative behavioral measure in the EPM was calculated as follows: 100 × {1 − [(time spent on open arms/total time on the maze)/2 + (number of entries to the open arms/total exploration on the maze)/2]} ([Cohen et al., 2011]). The MBT ([Njung’e and Handley, 1991]) was carried out in a 19 × 29 × 13 cm cage filled 5 cm deep with wood-chip bedding. Twenty marbles (5.2 g, 15 mm diameter, randomly colored) were evenly placed on the surface of the bedding in four rows of five pieces. At the end of a 30 min test, the animal was removed, and the marbles buried in bedding by at least two-thirds were recorded. […] The forced swim test (FST) was used for a preliminary assessment of antidepressant drug activity as described ([Colelli et al., 2014]). Briefly, on day one the mice were exposed to a 10 min pre-swim in a cylinder filled with 24 ± 1°C water. The next day they were re-exposed to the same apparatus for a 5 min test session with the behavior video recorded. The total time spent immobile was quantitated off-line visually. The interval between sequential behavioral tests was 2–3 days with the sequence OFT, EPM, MBT, and FST. All the testing and data analyses were performed by experimenters blind to treatment.

[2] = target: [3H]-LCGA-17 binding site in rat brain membranes (putative α2δ); assay: [3H]-LCGA-17 radioligand competition binding assay; details: rat brain membranes
[3] = system: Danio rerio; assay: Light–dark box (LDB); type: in vivo; details: for LDB. Time spent in lit compartment, Median: 5 min session, exp group
Experimental: (§1) Control groups were treated in parallel with vehicle alone. For drug injection, the fish were anesthetized briefly by placing them in 10°C water. The vehicle controls were tested in parallel.
(§2) Behavioral testing was initiated 10 min after drug injection, starting with the novel tank test (NTT), followed immediately thereafter by the light–dark box (LDB) and the social preference test (SPT). The NTT was adapted from [Maximino et al. (2013)] with the behavior video-recorded and the data processed using EthoVision XT14 (Noldus). The distance traveled, speed, number of visits to the bottom, middle and top thirds of the aquarium, respectively, and the times spent in each of these zones during the initial 5 min in the tank were recorded. A decreased time spent at the surface of the NTT apparatus reflects a reduction in exploratory behavior or increased hiding motivation ([Sackerman et al., 2010]). The behavior in the LDB ([Maximino et al., 2011]) and SPT ([Parker et al., 2014]) was video recorded and processed using RealTimer (Open Science LCC, Russia). The fish were added to the center zone of a three-zone aquarium and allowed to adapt for 1–2 min before removal of the septa separating the center from the flanking zones. The time spent and the number of visits to the light and dark flanking zones and the latency to enter the lit zone were recorded during a 5-min session. Stress of fish is associated with increased time spent in the dark compartment (scototaxis) ([Maximino et al., 2011]). For the SPT, the residence time and the number of visits to the three equally sized zones (near the shoal, in the center zone of the aquarium, and near the wall opposite to the shoal) were assessed during a 5-min session. Increased shoal preference (shoaling reflex) is thought to represent a protective response to a predator ([Nguyen et al., 2014]). All behavioral testing was done in the light phase using 500 lux (NTT, LDB) or 200 lux (SPT) illumination.

[4] = system: Danio rerio; assay: Novel tank test (NTT); type: in vivo; details: exp group
Experimental: as §1, §2

[5] = system: Danio rerio; assay: Social preference test (SPT); type: in vivo; details: for SPT. Time spent out of shoaling zone, Median: 5 min session, exp group
Experimental: as §1, §2

[6] = system: BALB/c mice; assay: Forced swim test (FST); type: in vivo; details: LCGA-17 5 mg/kg (none of the other dosages); diazepam 0.75 mg/kg
Experimental: (§3) The open field test (OFT) was used to assess locomotion. The total distance traveled in a 5 min session was recorded using Ethovision XT14 ([Prut and Belzung, 2003]). The elevated plus maze (EPM) and the marble burying test (MBT) were used to assess anxiolytic-like drug activity. For the EPM ([Pellow et al., 1985]), the percentage of time spent in the open arms, the percentage of open arm entries, and the number of total arm entries during a 5-min session were recorded using Ethovision. “Anxiety Index” (AI), an integrative behavioral measure in the EPM was calculated as follows: 100 × {1 − [(time spent on open arms/total time on the maze)/2 + (number of entries to the open arms/total exploration on the maze)/2]} ([Cohen et al., 2011]). The MBT ([Njung’e and Handley, 1991]) was carried out in a 19 × 29 × 13 cm cage filled 5 cm deep with wood-chip bedding. Twenty marbles (5.2 g, 15 mm diameter, randomly colored) were evenly placed on the surface of the bedding in four rows of five pieces. At the end of a 30 min test, the animal was removed, and the marbles buried in bedding by at least two-thirds were recorded. […] The next day they were re-exposed to the same apparatus for a 5 min test session with the behavior video recorded. The total time spent immobile was quantitated off-line visually. […]

[7] = system: BALB/c mice; assay: Marble burying test (MBT); type: in vivo; details: diazepam 0.75 mg/kg
Experimental: as §3

[8] = system: BALB/c mice; assay: Open field test (OFT); type: in vivo; details: diazepam 0.75 mg/kg
Experimental: as §3

[9] = Preliminary pharmacokinetic studies; type: in vivo; details: preliminary and ongoing pharmacokinetic studies
[10] = LCGA-17 20 mg/kg + bicuculline 5 mg/kg
[11] = bicuculline study: LCGA-17 20 mg/kg or bicuculline 5 mg/kg alone
[12] = LCGA-17 groups 1, 5, 10, 20 mg/kg combined

CN1CCc2cc3c(cc2[C@H]1[C@@H]1OC(=O)c2c1ccc1c2OCO1)OCO3 [Bicuculline]
EPM, effect of co-administered bicuculline on the LCGA-17 effect on % time on open arms [1, 10]: completely blocked | EPM, effect of co-administered bicuculline on the LCGA-17 effect on open arm entries [1, 10]: reduced the LCGA-17 effect | EPM, effect of cotreatment with bicuculline on the LCGA-17 effect on AI [1, 10]: reversed | EPM, effect on open arm entries, single agent ([1]; bicuculline 5 mg/kg alone): without effects | EPM, effect on total arm entries ([1]; bicuculline 5 mg/kg main effect, post hoc pairwise comparisons not significant): slightly reduced | EPM, effect on % time on open arms, single agent [1, 11]: no effect | EPM, effect on Anxiety Index (AI), single agent [1, 11]: without effects | IC50 ([2]; competition of [3H]-LCGA-17 (16 nM) binding, Table S1): > 100 µM | cross-reactivity with / competition at the [3H]-LCGA-17 binding site ([2]; result in words): no cross-reactivity

CN1C(=O)CN=C(c2ccccc2)c2cc(Cl)ccc21 [Diazepam]
LDB. Time spent in lit compartment, Median ([3]; 1.25 mg/kg): 21 s | LDB. Time spent in lit compartment, Median ([3]; 5 mg/kg): 177 s | LDB, effect on time spent in the lit compartment vs vehicle ([3]; most informative dosage, Figure 2C): anxiolytic-like effect | EPM, effect on percentage of time spent on open arms vs vehicle ([1]; mouse, in vivo): increased | NTT. Distance traveled, Median ([4]; 1.25 mg/kg): 887 cm | NTT. Distance traveled, Median ([4]; 5 mg/kg): 595 cm | SPT. Time spent out of shoaling zone, Median ([5]; 1.25 mg/kg): 20 s | SPT. Time spent out of shoaling zone, Median ([5]; 5 mg/kg): 21 s | SPT, effect on time spent out of the shoaling zone vs vehicle ([5]; most informative dosage, Figure 2D): anxiolytic-like effect | FST, effect on total time spent immobile vs vehicle [6]: failed to affect the behavior | MBT, effect on number of marbles buried vs vehicle ([7]; LCGA-17 5, 20 mg/kg, 30 min test): reduced | MBT, effect on number of marbles buried vs vehicle [7, 12]: reduced | OFT, effect on distance traveled vs vehicle ([8]; LCGA-17 5, 20 mg/ml as printed, 5 min session): modestly increased | OFT, effect on distance traveled vs vehicle [8, 12]: increased

NC(=O)CC[C@H](NC(=O)[C@@H](N)Cc1ccccc1)C(=O)N[C@@H](CO)C(=O)N[C@@H](CCC(=O)O)C(=O)O [LCGA-17, PheGlnSerGlu] (H-FQSE-OH; N-terminus and C-terminus assumed)
in vivo half-life [9]: minutes
